Test system: PPARα-dependent genes (ACO and CPT-1) after CEPT1 knockdown
Test: Rescue of ACO and CPT-1 expression in Hepa 1-6 cells treated with CEPT1 siRNA
Format: cell-based, mouse
Conditions: 72 h CEPT1 siRNA, then 50 μM for 24 h
Experimental: The C57BL/6 mouse hepatoma cell line Hepa 1-6 (ATCC, CRL-1830) was expanded in DMEM with 10% fetal bovine serum. For experiments, cells were cultured to 50-60% confluence, washed twice with PBS, and the medium was changed to serum-free DMEM supplemented with the various types and concentrations of phosphatidylcholine (sonicated to homogeneity in PBS/1% ethanol/4% fatty acid-free BSA), Wy14,643 (dissolved in 80% PBS/20% DMSO), or vehicle-only solutions. 24 h later, cells were washed, RNA prepared, and ACO and CPT-1 expression levels were determined by quantitative RT-PCR (see FIG. 6). For siRNA experiments, 50-60% confluent cells were treated with siRNAs or their scrambled controls (all diluted in PBS) for 72 h. […]
Stealth™ siRNA oligonucleotides were used to inhibit the gene expression of mouse ChPT1 ([…]) (SEQ ID NO: 1) and CEPT1 ([…]) (SEQ ID NO: 2) were from Invitrogen (Carlsbad, Calif.). […] Expression of ACO and CPT-1 was also assessed 24 h after addition of 50 μM 16:0/18:1-GPC in a subset of Hepa 1-6 cells previously treated with CEPT1 siRNA. mRNA levels are normalized to control L32 ribosomal mRNA. […] FIGS. 6F-H show the binding of various peptide motifs to the purified PPARα (FIG. 6F), PPARδ (FIG. 6G), and PPARγ (FIG. 6H) LBD in the presence of 5 μM of the corresponding PPAR agonist or 16:0/18:1-GPC as measured by AlphaScreen assays. […]

Q: Which “rescue of decreased PPARα-dependent genes (ACO, CPT-1) after CEPT1 knockdown” value does the source give for `CCCCCCCC/C=C\CCCCCCCC(=O)O[C@H](COC(=O)CCCCCCCCCCCCCCC)COP(=O)([O-])OCC[N+](C)(C)C` [16:0/18:1-GPC, 1-palmitoyl-2-oleoyl-sn-glycerol-3-phosphocholine] here?
A: rescued

Reference: patent US8337835B2, “Use of an endogenous ligand for peroxisome proliferator activated receptor alpha to treat liver disorders” (priority 2009, dated 2012)
